# Literature values as cited in US20090239923A1 (priority 2008, published 2009).
# Test system: human body
# Details: ingestion, 70 Kg human body; 90 mL = 70 g
smiles,measurement,value
CO [methanol],Lethal dose,90 mL
